Laboratory results reported in patent publication US7223782B2, “Pyrazole-amides and -sulfonamides” (Icagen, Inc., priority 2001, dated 2007).

Biological target: T1, PN3 (Homo sapiens, UniProt Q9Y5Y9)
T1 construct: expressed in transfected cells
Test: 14C Guanidinium Ion Influx Binding Assay (flux assay)
Type: cell-based
Details: activity towards PN3, PN3 stably expressed in a host cell line, deltamethrine 10 μM
Method: ^14C Guanidinium Ion Influx Binding Assay
PN3 stably expressed in a host cell line were maintained in DMEM with 5% fetal bovine serum and 300 μg/ml G-418. The cells were subcultured and grown to confluence in 96-well plates 24–48 h before each experiment. After the growth medium was removed, the cells were washed with warm buffer (25 mM Hepes-Tris, 135 mM choline chloride, 5.4 mM potassium chloride, 0.98 mM magnesium sulfate, 5.5 mM glucose, and 1 mg/ml BSA, pH 7.4) and incubated in buffer on a 36° C. slide warmer for approximately 10 minutes. Various concentrations of the test compounds or standard sodium channel blockers (10 μM) and then deltamethrine (10 μM) were added to each well. After the cells were exposed to deltamethrine for 5 minutes, 5 μM of ^14C-guanidinium was added, incubated with the radioligand (30–60 min), washed with ice-cold buffer, and dissolved in 0.1N sodium hydroxide. The radioactivity and the protein concentration of each cell lysate were determined by liquid scintillation counting and the protein assay using Pierce BCA reagent.

T1 sequence (Q9Y5Y9 whole entry, species assumed): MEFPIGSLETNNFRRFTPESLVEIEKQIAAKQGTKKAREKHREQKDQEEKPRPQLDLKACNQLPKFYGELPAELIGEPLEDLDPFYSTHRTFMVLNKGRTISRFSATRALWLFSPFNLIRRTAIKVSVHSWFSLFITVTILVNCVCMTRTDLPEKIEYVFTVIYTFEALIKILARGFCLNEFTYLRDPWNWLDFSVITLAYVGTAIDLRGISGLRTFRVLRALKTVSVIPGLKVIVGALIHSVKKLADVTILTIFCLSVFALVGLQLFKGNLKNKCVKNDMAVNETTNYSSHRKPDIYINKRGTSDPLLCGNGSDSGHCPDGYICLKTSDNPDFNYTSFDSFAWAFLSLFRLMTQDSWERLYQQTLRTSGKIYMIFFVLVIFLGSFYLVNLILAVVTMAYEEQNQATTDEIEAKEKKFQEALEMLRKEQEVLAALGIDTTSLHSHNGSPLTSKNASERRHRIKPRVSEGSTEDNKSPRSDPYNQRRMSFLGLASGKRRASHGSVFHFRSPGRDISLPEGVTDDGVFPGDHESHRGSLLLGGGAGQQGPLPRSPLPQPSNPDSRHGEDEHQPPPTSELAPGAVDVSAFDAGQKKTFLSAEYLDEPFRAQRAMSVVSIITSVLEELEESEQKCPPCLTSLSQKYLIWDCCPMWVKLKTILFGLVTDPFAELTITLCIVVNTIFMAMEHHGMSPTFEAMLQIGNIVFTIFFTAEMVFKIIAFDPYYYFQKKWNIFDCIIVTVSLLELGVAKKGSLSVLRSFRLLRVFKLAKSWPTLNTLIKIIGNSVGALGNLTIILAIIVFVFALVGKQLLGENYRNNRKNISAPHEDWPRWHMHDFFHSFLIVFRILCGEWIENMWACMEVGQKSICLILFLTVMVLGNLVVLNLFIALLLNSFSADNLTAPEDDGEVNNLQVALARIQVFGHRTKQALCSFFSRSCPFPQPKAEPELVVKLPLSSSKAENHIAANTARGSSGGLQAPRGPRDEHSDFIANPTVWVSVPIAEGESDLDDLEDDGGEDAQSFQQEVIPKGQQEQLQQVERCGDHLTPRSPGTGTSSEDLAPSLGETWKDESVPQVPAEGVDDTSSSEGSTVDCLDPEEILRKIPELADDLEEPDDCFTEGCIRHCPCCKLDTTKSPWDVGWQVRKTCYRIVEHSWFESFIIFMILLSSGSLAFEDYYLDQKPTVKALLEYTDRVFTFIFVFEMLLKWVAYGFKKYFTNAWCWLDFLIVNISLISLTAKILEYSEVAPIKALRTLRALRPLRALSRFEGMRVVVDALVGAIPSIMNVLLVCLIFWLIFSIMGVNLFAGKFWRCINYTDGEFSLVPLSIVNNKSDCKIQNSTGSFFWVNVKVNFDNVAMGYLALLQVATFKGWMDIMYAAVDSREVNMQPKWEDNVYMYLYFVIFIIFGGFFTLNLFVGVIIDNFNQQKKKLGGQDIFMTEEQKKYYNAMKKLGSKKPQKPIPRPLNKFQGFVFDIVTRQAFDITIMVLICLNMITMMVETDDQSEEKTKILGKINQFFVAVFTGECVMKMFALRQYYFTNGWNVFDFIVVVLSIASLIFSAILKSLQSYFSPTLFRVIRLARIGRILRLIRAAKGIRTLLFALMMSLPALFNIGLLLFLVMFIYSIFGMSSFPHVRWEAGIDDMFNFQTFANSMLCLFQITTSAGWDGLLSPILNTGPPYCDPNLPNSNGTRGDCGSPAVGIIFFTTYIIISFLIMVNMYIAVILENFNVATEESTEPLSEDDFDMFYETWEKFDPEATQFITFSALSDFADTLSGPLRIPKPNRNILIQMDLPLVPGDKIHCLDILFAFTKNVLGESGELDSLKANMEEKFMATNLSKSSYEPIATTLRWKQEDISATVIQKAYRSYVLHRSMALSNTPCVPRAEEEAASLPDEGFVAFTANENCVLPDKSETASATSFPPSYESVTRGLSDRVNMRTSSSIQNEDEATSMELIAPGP

Row | Compound | IC50 [µM]
1 | Cn1nc(-c2ccccc2)cc1NC(=O)c1cnn(-c2ccc(Cl)cc2)c1C(F)(F)F [Compound 20, 1-(4-Chloro-phenyl)-5-trifluoromethyl-1H-pyrazole-4-carboxylic acid (2-methyl-5-phenyl-2H-pyrazol-3-yl)-amide] | 0.1 to 4
2 | O=C(Nc1ccncc1)c1cnn(-c2ccc(Cl)cc2)c1C(F)(F)F [Compound 23, 1-(4-Chloro-phenyl)-5-trifluoromethyl-1H-pyrazole-4-carboxylic acid pyridin-4-ylamide] | 4.1 to 10
3 | CCCc1c(C(=O)NC(Cc2ccccc2)C(=O)OC)cnn1-c1ccccc1 (stereo not shown) [Compound 39, 3-Phenyl-2-[(1-phenyl-5-propyl-1H-pyrazole-4-carbonyl)-amino]-propionic acid methyl ester] | 0.1 to 4
4 | O=C(NCCc1ccccc1)c1cnn(-c2ccc(Cl)cc2)c1C(F)(F)F [Compound 114, 1-(4-Chloro-phenyl)-5-trifluoromethyl-1H-pyrazole-4-carboxylic acid phenethyl-amide] | 10.1 to 30
5 | CS(=O)(=O)c1cccc(NC(=O)c2cnn(-c3ccc(Cl)cc3)c2C(F)(F)F)c1 [Compound 154, 1-(4-Chloro-phenyl)-5-trifluoromethyl-1H-pyrazole-4-carboxylic acid (3-methanesulfonyl-phenyl)-amide] | 0.1 to 4
6 | O=C(NCCc1cccc(F)c1)c1cnn(-c2ccc(Cl)cc2)c1C(F)(F)F [Compound 323, 1-(4-Chloro-phenyl)-5-trifluoromethyl-1H-pyrazole-4-carboxylic acid [2-(3-fluoro-phenyl)-ethyl]-amide] | 0.1 to 4
7 | O=C(NCCc1ccc(F)cc1)c1cnn(-c2ccc(Cl)cc2)c1C(F)(F)F [Compound 411, 1-(4-Chloro-phenyl)-5-trifluoromethyl-1H-pyrazole-4-carboxylic acid [2-(4-fluoro-phenyl)-ethyl]-amide] | 0.1 to 4
8 | O=C(NCCc1ccccc1Cl)c1cnn(-c2ccc(Cl)cc2)c1C(F)(F)F [Compound 414, 1-(4-Chloro-phenyl)-5-trifluoromethyl-1H-pyrazole-4-carboxylic acid [2-(2-chloro-phenyl)-ethyl]-amide] | 0.1 to 4
9 | O=C(NCc1ccc(C(F)(F)F)cc1)c1cnn(-c2ccccc2)c1C(F)(F)F [Compound 444, 1-Phenyl-5-trifluoromethyl-1H-pyrazole-4-carboxylic acid 4-trifluoromethyl-benzylamide] | 4.1 to 10
10 | O=C(NCCc1cccc(Cl)c1)c1cnn(-c2cccc(Cl)c2)c1 [Compound 449, 1-(3-Chloro-phenyl)-1H-pyrazole-4-carboxylic acid [2-(3-chloro-phenyl)-ethyl]-amide] | 0.1 to 4
11 | O=C(NCCc1cccc(Cl)c1)c1cnn(-c2ccc(F)cc2)c1C(F)(F)F [Compound 480, 1-(4-Fluoro-phenyl)-5-trifluoromethyl-1H-pyrazole-4-carboxylic acid [2-(3-chloro-phenyl)-ethyl]-amide] | 0.1 to 4
12 | NS(=O)(=O)c1cccc(NC(=O)c2cnn(-c3ccc(Cl)cc3)c2C(F)(F)F)c1 [Compound 1054, 1-(4-Chloro-phenyl)-5-trifluoromethyl-1H-pyrazole-4-carboxylic acid (3-sulfamoyl-phenyl)-amide] | 0.1 to 4
13 | CN(C)CCNS(=O)(=O)c1cccc(NC(=O)c2cnn(-c3ccc(Cl)cc3)c2C(F)(F)F)c1 [Compound 1175, 1-(4-Chloro-phenyl)-5-trifluoromethyl-1H-pyrazole-4-carboxylic acid [3-(2-dimethylamino-ethylsulfamoyl)-phenyl]-amide] | 4.1 to 10
